The target in this assay is Mitogen-activated protein kinase kinase kinase 14 (Homo sapiens, UniProt Q99558). The experiment in a line: Inhibition of auto-phosphorylation of recombinant human NF-kappaB-inducing kinase (NIK/MAP3K14) activity. How it is done: NIK/MAP3K14 auto-phosphorylation activity was measured using the AlphaScreen (ascreen) format (Perkin Elmer). All compound6 tested were dissolved in dimethyl sulfoxide (DMSO) and further dilutions were made in assay buffer. The final DMSO concentration was 0.7% (v/v) in assays. The assay buffer was 50 mM Tris pH 7.5 containing 1 mM EGTA (ethylene glycol tetraacetic acid), 1 mM DTT (dithiothreitol), 0.1 mM NasVCO4, 5 mM MgCE, and 0.01 % Tween 20. The assays were carried out in 384 well Proxiplates (Perkin Elmer). The incubations consisted of the compound, […] Adenosine-5'-triphosphate (ATP), and 1 nM NIK/MAP3K14. Incubations were initiated by the addition of GST-tagged NIK/MAP3K14 enzyme, carried out for 2 h at 25 °C and terminated by addition of stop buffer containing anti-phospho-IKK Ser176/180 antibody. Protein A Acceptor and Glutathione-Donor bead6 were added before reading using an EnVision Multilabel Plate Reader (Perkin Elmer). The signal obtained in the wells was normalized using high (full enzyme activity, 0.7% DMSO) and low controls (no enzyme activity, 0.7% DMSO, no ATP). IC50 s were determined by fitting a sigmoidal curve to % inhibition of control versus Log compound concentration.
Mitogen-activated protein kinase kinase kinase 14, sequence (Q99558 whole entry): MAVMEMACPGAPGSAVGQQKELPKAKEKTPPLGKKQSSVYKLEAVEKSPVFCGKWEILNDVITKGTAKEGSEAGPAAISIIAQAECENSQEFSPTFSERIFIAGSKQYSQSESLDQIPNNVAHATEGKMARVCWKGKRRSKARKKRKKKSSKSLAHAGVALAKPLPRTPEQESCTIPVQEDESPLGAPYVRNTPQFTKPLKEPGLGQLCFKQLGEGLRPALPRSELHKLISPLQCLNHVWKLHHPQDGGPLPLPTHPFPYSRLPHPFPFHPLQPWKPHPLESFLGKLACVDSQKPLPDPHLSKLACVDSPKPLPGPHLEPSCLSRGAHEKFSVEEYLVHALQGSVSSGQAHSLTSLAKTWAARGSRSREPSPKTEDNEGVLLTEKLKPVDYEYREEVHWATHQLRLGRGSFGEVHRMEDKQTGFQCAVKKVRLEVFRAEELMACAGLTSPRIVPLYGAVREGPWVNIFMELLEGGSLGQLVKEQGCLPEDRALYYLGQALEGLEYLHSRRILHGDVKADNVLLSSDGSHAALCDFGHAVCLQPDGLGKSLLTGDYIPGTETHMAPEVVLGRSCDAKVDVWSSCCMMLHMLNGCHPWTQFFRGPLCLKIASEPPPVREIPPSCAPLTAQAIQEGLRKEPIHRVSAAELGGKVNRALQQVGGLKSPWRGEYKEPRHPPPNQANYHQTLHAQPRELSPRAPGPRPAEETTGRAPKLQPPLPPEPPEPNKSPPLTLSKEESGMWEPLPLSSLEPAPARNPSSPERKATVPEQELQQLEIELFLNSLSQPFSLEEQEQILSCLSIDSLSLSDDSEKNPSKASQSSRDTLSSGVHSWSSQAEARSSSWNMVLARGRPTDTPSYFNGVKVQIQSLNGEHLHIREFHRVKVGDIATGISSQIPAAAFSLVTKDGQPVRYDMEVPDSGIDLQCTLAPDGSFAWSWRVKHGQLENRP
For the compound `O=C1Nc2cccnc2[C@]1(O)c1cccc(-c2csc(-c3c[nH]c4ncccc34)n2)c1` [WO2022104348, Example 89], the IC50 is over 500 nM. With `O=C1Nc2cccnc2[C@@]1(O)c1cccc(-c2csc(-c3c[nH]c4ncccc34)n2)c1` [WO2022104348, Example 90], the IC50 is over 500 nM. The same measure for `CN1C(=O)[C@@](O)(c2cccc(-c3csc(-c4c[nH]c5ncccc45)n3)c2)c2ncccc21` [WO2022104348, Example 91]: over 500 nM. To `CN1C(=O)[C@](O)(c2cccc(-c3csc(-c4c[nH]c5ncccc45)n3)c2)c2ncccc21` [WO2022104348, Example 92] belongs under 100 nM.

`CN1CC[C@@](O)(c2cccc(-c3coc(-c4c[nH]c5ncccc45)c3)c2)C1=O` [WO2022104348, Example 93]: the IC50 is under 100 nM. To `CN1CC[C@@](O)(c2cccc(-c3csc(-c4c[nH]c5ncc(F)c(F)c45)n3)c2)C1=O` [WO2022104348, Example 94] belongs under 100 nM. On to `CN1CC[C@@](O)(c2cccc(-c3csc(-c4c[nH]c5ncc(Cl)c(F)c45)n3)c2)C1=O` [WO2022104348, Example 95], for which the IC50 was under 100 nM. To `O[C@@]1(c2cccc(-c3csc(-c4c[nH]c5ncc(F)c(F)c45)n3)c2)CCn2ccnc21` [WO2022104348, Example 96] belongs under 100 nM; to `O[C@@]1(c2cccc(-c3csc(-c4c[nH]c5ncc(Cl)c(F)c45)n3)c2)CCn2ccnc21` [WO2022104348, Example 97], under 100 nM. Consider `CN1CC[C@@](O)(c2cccc(-c3nc(-c4c[nH]c5ncccc45)sc3C#N)c2)C1=O` [WO2022104348, Example 98], for which the IC50 is over 500 nM. Consider `CN1CC[C@@](O)(c2cccc(-c3nc(-c4c[nH]c5ncccc45)sc3F)c2)C1=O` [WO2022104348, Example 99], for which the IC50 was under 100 nM. The same measure for `CN1CC[C@@](O)(c2cccc(-c3csc(-c4n[nH]c5ncccc45)n3)c2)C1=O` [WO2022104348, Example 100]: over 500 nM; for `O[C@H]1C[C@](O)(c2cccc(-c3csc(-c4c[nH]c5ncccc45)n3)c2)c2ncccc21` [WO2022104348, Example 102]: over 500 nM; for `O[C@H]1C[C@@](O)(c2cccc(-c3csc(-c4c[nH]c5ncccc45)n3)c2)c2ncccc21` [WO2022104348, Example 103]: over 500 nM.

As to `O[C@@H]1C[C@](O)(c2cccc(-c3csc(-c4c[nH]c5ncccc45)n3)c2)c2ncccc21` [WO2022104348, Example 104], the IC50 is over 500 nM.

On to `C[C@]1(O)C[C@](O)(c2cccc(-c3csc(-c4c[nH]c5ncccc45)n3)c2)c2ncccc21` [WO2022104348, Example 105], for which the concentration for half-maximal inhibition (IC50) is over 500 nM. To `C[C@@]1(O)C[C@@](O)(c2cccc(-c3csc(-c4c[nH]c5ncccc45)n3)c2)c2ncccc21` [WO2022104348, Example 106] belongs over 500 nM. To `C[C@@]1(O)C[C@](O)(c2cccc(-c3csc(-c4c[nH]c5ncccc45)n3)c2)c2ncccc21` [WO2022104348, Example 107] belongs over 500 nM; to `CN1CC[C@@](O)(c2cccc(-n3ncc(-c4c[nH]c5ncccc45)n3)c2)C1=O` [WO2022104348, Example 109], under 100 nM; to `CN1CC[C@@](O)(c2cccc(-c3csc(-n4ccc5nc(N)ccc54)n3)c2)C1=O` [WO2022104348, Example 112], over 500 nM. Regarding `CN1CC[C@@](O)(c2cccc(-c3ccc(-c4c[nH]c5ncccc45)o3)c2)C1=O` [WO2022104348, Example 114], the IC50 was under 100 nM. As for `CN1CC[C@@](O)(c2cccc(-c3cc(-c4c[nH]c5ncccc45)co3)c2)C1=O` [WO2022104348, Example 115], the IC50 is over 500 nM.

As to `CN1CC[C@@](O)(c2cccc(-c3coc(-c4c[nH]c5ncccc45)n3)c2)C1=O` [WO2022104348, Example 116], the half-maximal inhibitory concentration (IC50) is under 100 nM. In the case of `Cc1c(-c2c[nH]c3ncccc23)n[nH]c1-c1cccc([C@]2(O)CCN(C)C2=O)c1` [WO2022104348, Example 119], the IC50 is over 500 nM. To `CN1CC[C@@](O)(c2cccc(-c3cnc(-c4c[nH]c5ncccc45)n3C)c2)C1=O` [WO2022104348, Example 120] belongs over 500 nM; to `CN1CC[C@@](O)(c2cccc(-n3cnc(-c4c[nH]c5ncccc45)n3)c2)C1=O` [WO2022104348, Example 121], under 100 nM; to `CN1CC[C@@](O)(c2cccc(-n3ccc(-c4c[nH]c5ncccc45)n3)c2)C1=O` [WO2022104348, Example 122], under 100 nM.

In the case of `CN1CC[C@@](O)(c2cccc(-n3cc(-c4c[nH]c5ncccc45)nn3)c2)C1=O` [WO2022104348, Example 123], the IC50 is over 500 nM. The same measure for `CN1CC[C@@](O)(c2cccc(-n3cnc(-c4c[nH]c5ncccc45)c3)c2)C1=O` [WO2022104348, Example 124]: over 500 nM; for `Cc1noc2c1CC[C@@]2(O)c1cccc(-c2csc(-c3c[nH]c4ncccc34)n2)c1` [WO2022104348, Example 126]: under 100 nM. The same measure for `CN1CC[C@@](O)(c2cccc(-c3nc(-c4ccnc5[nH]ccc45)cs3)c2)C1=O` [WO2022104348, Example 127]: under 100 nM; for `CN1CC[C@@](O)(c2cccc(-c3nc(-c4cc(N)nc5[nH]ccc45)cs3)c2)C1=O` [WO2022104348, Example 129]: over 500 nM; for `CN1CC[C@@](O)(c2cccc(-c3nc(-c4c(Cl)cnc5[nH]ccc45)cs3)c2)C1=O` [WO2022104348, Example 130]: over 500 nM.

Consider `CN1CC[C@@](O)(c2cccc(-c3nc(-c4cccc5[nH]ncc45)cs3)c2)C1=O` [WO2022104348, Example 131], for which the IC50 was over 500 nM.

The values are drawn from BindingDB's records for patent WO2022104348 (Janssen Pharmaceutica, 2022).
